Measured values as given in patent US6448286B1, “Imino pyrrolidine derivatives useful as nitric oxide synthase inhibitors” (G.D. Searle & Co., priority 1993, dated 2002).
Where a name gives a salt, the structure may show the parent alone. Read-outs that look alike come from different tables or passages of the source.

Experiments:
[1] = molecular target: T1, Mouse inducible nitric oxide synthase (miNOS) (Mus musculus, UniProt P29477); assay: biochemical; conditions: for iNOS, % @ 10 μM: 10 μM compound; for IC50: read-out: iNOS
T1 construct: prepared from an extract of LPS-treated RAW 264.7 cells and partially purified by DEAE-Sepharose chromatography; endogenous in cells; host or cells: LPS-treated RAW 264.7 cells (mouse macrophage line)

[2] = molecular target: T2, Rat brain constitutive nitric oxide synthase (rnNOS) (Rattus norvegicus, UniProt P29476); assay: Citrulline assay for nitric oxide synthase (cNOS); assay type: biochemical
T2 construct: prepared from an extract of rat cerebellum and partially purified by DEAE-Sepharose chromatography; from tissue; host or cells: rat cerebellum
Protocol: Nitric oxide synthase activity was measured by monitoring the conversion of [3H]-arginine to [3H]-citrulline. Mouse inducible nitric oxide synthase (miNOS) was prepared from an extract of LPS-treated RAW 264.7 cells and partially purified by DEAE-Sepharose chromatography. Rat brain constitutive nitric oxide synthase (rnNOS) was prepared from an extract of rat cerebellum and partially purified by DEAE-Sepharose chromatography. Enzyme and inhibitors were incubated at 37° C. for 15 minutes in a reaction volume of […] with the following components added to start the reaction: 50 mM Tris (pH 7.6), 1 mg/ml bovine serum albumin, 1 mM DTT, 2 mM CaCl2, 10 mM FAD, 10 mM tetrahydrobiopterin, […] L-arginine containing L-[2,3-3H]-arginine at 300 cpm/pmole and 1 mM NADPH. For constitutive NOS, 50 nM calmodulin was also added. The reaction was terminated by addition of cold stop buffer containing 10 mM EGTA, 100 mM HEPES, pH 5.5 and 1 mM citrulline. [3H]-Citrulline was separated by chromatography on Dowex 50W X-8 cation exchange resin and radioactivity determined with a liquid scintillation counter.

[3] = system: intracellular iNOS in LPS-induced RAW 264.7 cells; assay: Raw cell nitrite assay; assay type: cell-based; conditions: Mus musculus, read-out: Raw Cell IC50
Protocol: RAW 264.7 cells are plated to confluency on a 96-well tissue culture plate grown overnight (17h) in the presence of LPS to induce NOS. […] The media was removed from each well and the cells are washed twice with Krebs-Ringers-Hepes (25 mM, pH 7.4) with 2 mg/ml glucose. The cells are then placed on ice and incubated with […] of buffer containing L-arginine (30 mM) +/− inhibitors for 1 h. The assay is initiated by warming the plate to 37° C. in a water bath for 1 h. […] To terminate the cellular assay, the plate of cells is placed on ice and the nitrite-containing buffer removed and analyzed for nitrite using a previously published fluorescent determination for nitrite. […] All values are the average of triplicate wells and are compared to a background-subtracted induced set of cells (100% value).

[4] = system: LPS-induced increase in plasma nitrites; assay: In vivo assay: endotoxin (LPS)-induced plasma nitrites in rat; conditions: Low Endotoxin in Rat Model
Protocol: Rats were treated with an intraperitoneal injection of 10 mg/kg of endotoxin (LPS) with or without oral administration of the nitric oxice synthase inhibitors. Plasma nitrites were measured 5 hours post-treatment.
IP is the abbreviation for 2-iminopiperidine. LPS is the abbreviation for endotoxin

[5] = printed as % only (inhibition not stated)
[6] = conversion of [3H]-arginine to [3H]-citrulline, 37° C., 15 minutes
[7] = RAW264.7, nitrite production, RAW 264.7 cells, LPS-induced, 1 h at 37° C.
[8] = conversion of [3H]-arginine to [3H]-citrulline, 50 nM calmodulin added, read-out: cNOS IC50
[9] = 100 μM compound, printed as % only (inhibition not stated)

T1 sequence (P29477 whole entry): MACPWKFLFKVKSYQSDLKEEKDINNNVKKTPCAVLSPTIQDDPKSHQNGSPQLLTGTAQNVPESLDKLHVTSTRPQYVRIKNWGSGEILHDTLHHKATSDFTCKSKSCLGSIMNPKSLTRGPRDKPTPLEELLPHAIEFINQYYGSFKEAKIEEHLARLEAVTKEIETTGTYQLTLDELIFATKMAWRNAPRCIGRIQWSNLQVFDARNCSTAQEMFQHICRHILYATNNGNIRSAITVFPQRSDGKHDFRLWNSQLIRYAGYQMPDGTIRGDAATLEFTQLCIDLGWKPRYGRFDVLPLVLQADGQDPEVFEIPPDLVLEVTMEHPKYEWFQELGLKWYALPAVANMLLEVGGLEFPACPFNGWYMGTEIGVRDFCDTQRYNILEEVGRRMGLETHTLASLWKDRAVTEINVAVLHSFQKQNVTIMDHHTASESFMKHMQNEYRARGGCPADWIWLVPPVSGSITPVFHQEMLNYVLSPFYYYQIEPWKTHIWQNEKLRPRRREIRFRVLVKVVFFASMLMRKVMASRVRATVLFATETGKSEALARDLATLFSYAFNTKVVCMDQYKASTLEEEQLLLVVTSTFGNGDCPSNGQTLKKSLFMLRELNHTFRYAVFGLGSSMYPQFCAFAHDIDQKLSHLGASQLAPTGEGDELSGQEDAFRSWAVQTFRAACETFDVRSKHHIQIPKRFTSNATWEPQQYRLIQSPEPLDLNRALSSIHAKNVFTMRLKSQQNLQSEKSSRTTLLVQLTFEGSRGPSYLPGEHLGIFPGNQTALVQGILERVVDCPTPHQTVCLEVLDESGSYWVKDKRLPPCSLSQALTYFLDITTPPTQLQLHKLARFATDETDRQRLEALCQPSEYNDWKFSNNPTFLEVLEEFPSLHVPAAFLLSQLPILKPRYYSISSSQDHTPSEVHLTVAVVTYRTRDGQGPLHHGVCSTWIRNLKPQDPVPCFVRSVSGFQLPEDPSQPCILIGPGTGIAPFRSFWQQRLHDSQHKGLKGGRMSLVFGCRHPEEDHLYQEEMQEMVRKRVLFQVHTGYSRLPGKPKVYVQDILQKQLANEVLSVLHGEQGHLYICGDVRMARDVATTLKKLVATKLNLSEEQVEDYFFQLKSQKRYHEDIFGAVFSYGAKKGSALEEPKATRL
T2 sequence (P29476 whole entry): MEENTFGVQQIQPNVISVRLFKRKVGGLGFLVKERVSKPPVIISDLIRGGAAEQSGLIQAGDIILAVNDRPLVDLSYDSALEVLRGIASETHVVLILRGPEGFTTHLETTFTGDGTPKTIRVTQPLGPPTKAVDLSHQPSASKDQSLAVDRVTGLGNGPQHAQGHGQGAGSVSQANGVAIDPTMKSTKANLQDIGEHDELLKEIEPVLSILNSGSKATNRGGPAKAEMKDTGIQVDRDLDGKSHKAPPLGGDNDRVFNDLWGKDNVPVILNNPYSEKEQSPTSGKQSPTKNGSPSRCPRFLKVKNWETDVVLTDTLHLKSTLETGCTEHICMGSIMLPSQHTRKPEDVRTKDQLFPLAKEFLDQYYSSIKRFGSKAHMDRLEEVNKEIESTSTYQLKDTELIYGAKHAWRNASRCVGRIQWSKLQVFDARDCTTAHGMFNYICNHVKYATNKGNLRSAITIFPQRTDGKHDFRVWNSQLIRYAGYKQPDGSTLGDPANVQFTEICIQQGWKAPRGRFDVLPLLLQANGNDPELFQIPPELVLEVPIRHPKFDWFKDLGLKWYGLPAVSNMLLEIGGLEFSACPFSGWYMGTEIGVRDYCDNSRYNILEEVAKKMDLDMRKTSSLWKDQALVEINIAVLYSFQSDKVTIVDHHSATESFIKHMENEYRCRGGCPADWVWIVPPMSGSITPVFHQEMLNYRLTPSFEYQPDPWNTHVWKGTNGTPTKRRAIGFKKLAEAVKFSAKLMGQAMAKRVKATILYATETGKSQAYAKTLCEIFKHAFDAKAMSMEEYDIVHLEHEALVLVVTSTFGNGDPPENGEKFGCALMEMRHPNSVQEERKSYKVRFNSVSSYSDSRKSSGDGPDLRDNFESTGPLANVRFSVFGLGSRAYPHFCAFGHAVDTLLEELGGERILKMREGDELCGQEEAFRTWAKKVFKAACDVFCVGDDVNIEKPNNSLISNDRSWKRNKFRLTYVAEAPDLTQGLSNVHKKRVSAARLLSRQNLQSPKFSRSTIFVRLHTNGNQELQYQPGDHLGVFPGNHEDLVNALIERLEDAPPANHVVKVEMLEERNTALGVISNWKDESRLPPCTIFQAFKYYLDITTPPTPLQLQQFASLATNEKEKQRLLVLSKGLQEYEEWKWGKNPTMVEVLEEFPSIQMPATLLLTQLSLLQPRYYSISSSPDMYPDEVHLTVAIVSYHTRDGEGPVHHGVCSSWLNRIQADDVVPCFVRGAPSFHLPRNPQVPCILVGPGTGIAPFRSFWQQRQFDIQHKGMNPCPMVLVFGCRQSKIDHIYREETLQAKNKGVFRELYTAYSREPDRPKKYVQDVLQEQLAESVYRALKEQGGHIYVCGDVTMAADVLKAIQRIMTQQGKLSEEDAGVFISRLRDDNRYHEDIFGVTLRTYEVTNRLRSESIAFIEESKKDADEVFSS

IC50 [1, 6] [µM] | Structure (SMILES) | IC50 [2] [µM] | IC50 ([3]; RAW264.7, 1 h) [µM] | other results
2 | CC1CCC(N)=NC1 (centres unmarked) [Example 7, 2-Imino-5-methylpiperidine acetate] | 13.3 | – | –
0.16 | CC1CCCC(=N)N1.Cl (centres unmarked) [Example 8, 2-Imino-6-methylpiperidine hydrochloride] | 0.99 | – | melting point: 160 to 162 °C
1.5 | CC1CCCN=C1N (centres unmarked) [Example 9, 2-imino-3-methylpiperidine acetate] | 2.01 | – | –
0.043 | CC1CC(N)=NC(C)C1 (centres unmarked) [Example 10, 2-imino-4,6-dimethylpiperidine acetate] | – | – | IC50 [2, 8]: 0.127 µM
0.92 | N=C1NCCCC1O (centres unmarked) [Example 11, 2-Imino-3-hydroxypiperidine acetate] | 2.77 | – | –
0.6 | N=C1CCCCN1 [Example 13, 2-Iminopiperidine hydrochloride] | 2 | 14 | –
0.8 | NC1=NCCCS1 [Example 17, 2-Imino-3-thiapiperidine hydrochloride] | 2.7 | 28 | –
1 | N=C1NCC(CCl)O1 (centres unmarked) [Example 20, 5-Chloromethyl-2-iminooxazolidine] | 5 | – | IC50 [3, 7]: 160 µM
30 | CCOC(=O)CCCC[C@@H]1SC[C@@H]2NC(=N)NC21 (some centres unmarked) [Example 22, 2-Iminobiotin ethyl ester] | 1300 | – | IC50 [3, 7]: > 1000 µM
7 | C[C@@H]1CCCC(N)=NC1 [Example 90, hexahydro-6R-methyl-1H-azepin-2-imine, monohydrochloride] | 46 | – | –
1.4 | CC1CN=C(N)C1 (centres unmarked) [Example 182, 4-methylpyrrolidin-2-imine, monohydrochloride] | 14 | – | –

Continued, molecule first:

Structure (SMILES) | IC50 [1, 6] [µM] | IC50 [2] [µM] | IC50 ([3]; RAW264.7, 1 h) [µM] | other results
Cl.N=C1CC(C(=O)O)CCN1 (centres unmarked) | – | – | – | melting point: 230 to 234 °C
CC1CCC(=N)NC1 (centres unmarked) (as salt: acetate) [Example 7, 2-Imino-5-methylpiperidine acetate] | – | – | – | melting point: 175 to 178 °C
CC1CCCNC1=N (centres unmarked) (as salt: acetate) [Example 9, 2-imino-3-methylpiperidine acetate] | – | – | – | melting point: 88 to 100 °C
CC1CC(=N)NC(C)C1 (centres unmarked) (as salt: acetate) [Example 10, 2-imino-4,6-dimethylpiperidine acetate] | – | – | – | melting point: 163 to 166 °C
N=C1NCCCC1O (centres unmarked) (as salt: acetate) [Example 11, 2-Imino-3-hydroxypiperidine acetate] | – | – | – | melting point: 128 to 130 °C
CC1CCC(O)C(=N)N1 (centres unmarked) (as salt: acetate) [Example 277, 3-hydroxy-2-imino-6-methylpiperidine acetate] | – | – | – | melting point: 158 to 160 °C
CN=C1CCCCCN1 (as salt: hydroiodid) | – | – | – | melting point: 169 to 171 °C
CN1CCCCC1=N (as salt: hydroiodid) | – | – | – | melting point: 157 to 158 °C
CN1CCCCCC1=N (as salt: hydroiodid) | – | – | – | melting point: 137 to 139 °C
Cl.N=C1NC[C@H]2CCCC[C@H]12 (relative stereo) [Example 173, (trans)-octahydro-2H-isoindol-1-imine, monohydrochloride] | – | – | – | iNOS, % @ 10 μM [1, 5]: 42% @ 10 μM
NC1=NCCCCCC1 [Example 1, 2-Imino-heptamethyleneimine hydrochloride] | 2.1 | 13.3 | 60 | –
N=C1CCCCCCCN1 [Example 2, 2-Imino-octamethyleneimine hydrochloride] | 2.2 | 9.9 | > 1000 | –
Cl.N=C1CCC2=C(CCCC2)N1 [Example 3, 3,4,5,6,7,8-hexahydro-2[1H]-quinolineimine hydroiodide] | – | – | – | melting point: 150 to 155 °C; iNOS, % @ 10 μM [1, 5]: 43% * 10 μM
CC1CCNC1=N (centres unmarked) [Example 4, 2-Imino-3-methyltetramethyleneimine hydriodide] | 4.6 | 2.4 | 14 | –
CC1CCC(N)=N1 (centres unmarked) [Example 5, 2-Imino-5-methyltetramethyleneimine hydriodide] | 3.2 | 9.4 | – | IC50 [3, 7]: 18 µM
CC1CCN=C(N)C1 (centres unmarked) [Example 6, 2-Imino-4-methylpiperidine acetate] | – | – | – | IC50 [1]: 0.055 µM
NC1=NCCC1 [Example 12, 2-iminopyrrolidine hydrochloride] | – | 32 | 1.8 | IC50 [1]: 5.1 µM
NC1=NCCCN1 [Example 14, 2-Iminotetrahydropyrimidine hemihydrosulfate] | – | – | > 1000 | IC50 [2, 8]: 23 µM

Structure (SMILES) | IC50 [1, 6] [µM] | IC50 [2] [µM] | IC50 ([3]; RAW264.7, 1 h) [µM] | other results
N=C1NCCN1 [Example 15, 2-Iminoimidazolidine] | – | – | – | iNOS, % @ 10 μM [1, 5]: 8% @ 10 μM
N=C1NCCS1 [Example 16, 2-Iminothiazolidine hydrochloride] | – | – | – | IC50 [3, 7]: 4.3 µM
NC1=NCCCO1 [Example 18, hydrochloride] | 0.8 | 6 | 6 | –
N=C1NCCO1 [Example 19, 2-Iminooxazolidine] | – | – | – | iNOS, % @ 10 μM [1, 5]: 42% @ 10 μM
N=C1N[C@H]2[C@H](CS[C@H]2CCCCC(=O)O)N1 [Example 21, 2-Iminobiotin] | 40 | – | > 1000 | IC50 [2, 8]: 500 µM
CN1CCCNC1=N [Example 23, 1-Methyl-2-iminotetrahydropyrimidine] | – | – | – | iNOS, % @ 10 μM [1, 5]: 41% @ 10 μM
CCC1CCCCNC1=N (centres unmarked) [Example 60, 3-ethyl-hexahydro-1H-azepin-2-imine, monohydrochloride] | – | 32 | 3.5 | –
CC1CCNC(=N)CC1 (centres unmarked) [Example 70, hexahydro-5-methyl-1H-azepin-2-imine, monohydrochloride] | 5.9 | 32 | 24 | –
Cl.N=C1CCCCC(C2CCCCC2)N1 (centres unmarked) [Example 96, 7-cyclohexyl-hexahydro-1H-azepin-2-imine, monohydrochloride] | 9.3 | 1400 | – | ED50 ([4]; po, administered p.o.): 3.8 mg/kg
C=CCC1CCCCNC1=N (centres unmarked) [Example 107, hexahydro-3-(2-propenyl)-1H-azepin-2-imine, monohydrochloride] | 3.8 | 342 | 15 | –
C=CCC1CCCCC(=N)N1.Cl (centres unmarked) [Example 108, hexahydro-7-(2-propenyl)-1H-azepin-2-imine, monohydrochloride] | – | 19 | 0.57 | ED50 ([4]; po, administered p.o.): 3.7 mg/kg
CCCC1CCCCC(=N)N1.Cl (centres unmarked) [Example 114, hexahydro-7-propyl-1H-azepin-2-imine, monohydrochloride] | – | 7.8 | 0.55 | ED50 ([4]; po, administered p.o.): 3.4 mg/kg
Cl.N=C1CCc2ccccc2N1 [Example 164, 1,2,3,4-tetrahydroquinolin-2-imine, monohydrochloride] | – | – | – | cNOS, % @ 100 μM [2, 9]: 74% @ 100 μM; iNOS, % @ 100 μM [1, 9]: 60% @ 100 μM
CC1(C)CCN=C(N)C1 [Example 170, 4,4-dimethylpiperidin-2-imine, monohydrochloride] | – | 53 | – | –
CCCCC1CCCCC(=N)N1.Cl (centres unmarked) [Example 188, 7-butylhexahydro-1H-azepin-2-imine, monohydrochloride] | 0.55 | 106 | 0.65 | ED50 ([4]; po, administered p.o.): 3.7 mg/kg
NC1=NC(c2ccccc2)CCCC1 (centres unmarked) [Example 192, hexahydro-7-phenyl-1H-azepin-2-imine, monohydrochloride] | – | 179 | 31 | IC50 [1]: 12 µM
CCC(CC)CC1CCCCC(=N)N1.Cl (centres unmarked) [Example 198, 7-(2-ethylbutyl)hexahydro-1H-azepin-2-imine, monohydrochloride] | 2.1 | 652 | 3.3 | ED50 ([4]; determined using iv infusion): 5 mg/kg
CCC1NC(=N)CC1C (centres unmarked) [Example 217, 5-ethyl-4-methylpyrrolidin-2-imine, monohydrochloride] | 0.17 | 1.6 | 0.25 | –
